Test results as given in ChEMBL document CHEMBL4840378 (J Med Chem, 2021).

Key:
[1] = AUCinf in rat at 10 mg/kg, po; assay type: ADME, organism-based; design: route oral, time infinity, dose 10 mg/kg; details: in vivo
[2] = Clearance in rat at 2 mg/kg; assay type: ADME, organism-based; details: in vivo
[3] = Metabolic stability in human liver S9 fraction assessed as compound remaining measured after 1 hr; assay type: ADME, subcellular; details: read-out: Stability
[4] = Metabolic stability in rat liver S9 fraction assessed as compound remaining measured after 1 hr; assay type: ADME, subcellular; details: read-out: Stability

**Q.** With CC(C)(C)Nc1ncc(C(N)=O)c(N[C@@H]2CCC[C@H](O)C2)n1 as the compound, how does the AUC(0-inf) [1] read?
**A.** 10.8 µM·h

**Q.** What about the clearance [2] of the same compound?
**A.** 78 mL/min/kg

**Q.** What about the remaining at 1 h [3] of the same compound?
**A.** 93%

**Q.** And the remaining at 1 h [4]?
**A.** 98%

**Q.** Which remaining at 1 h [3] does the source give for CO[C@H]1CCC[C@@H](Nc2nc(N[C@H]3CC[C@H](OC)CC3)ncc2C(N)=O)C1 here?
**A.** 91%

**Q.** And the remaining at 1 h [4]?
**A.** 47%

**Q.** Which remaining at 1 h [3] does the source give for NC(=O)c1cnc(NC2CCCCC2)nc1N[C@@H]1CCC[C@H](O)C1 here?
**A.** 77%

**Q.** And the remaining at 1 h [4]?
**A.** 1%

**Q.** What does the source list for NC(=O)c1cnc(NC23CC(C2)C3)nc1N[C@@H]1CCC[C@H](O)C1?
**A.** AUC(0-inf) [1]: 2.25 µM·h; remaining at 1 h [3]: 96%; remaining at 1 h [4]: 75%

**Q.** Which results are given for CO[C@H]1CC[C@H](Nc2ncc(C(N)=O)c(N[C@@H]3CCCC(F)(F)C3)n2)CC1 (mixture of isomers)?
**A.** remaining at 1 h [3]: 61%; remaining at 1 h [4]: 1%

**Q.** Which results are given for C[C@@H]1CC[C@@H](Nc2nc(NC(C)(C)C)ncc2C(N)=O)C[C@H]1O [CC-90001]?
**A.** AUC(0-inf) [1]: 35.5 µM·h; clearance [2]: 11 mL/min/kg
